Key:
MDA-MB-231 cell line = assay: in vitro migration assay; type: cell-based
From the text: FIG. 2C depicts in vitro migration assay on MDA-MB-231 cell line.

Caco-2 monolayer = assay: permeability and efflux across Caco-2 monolayer; details: co-treated with piperlongumine
From the text: In FIG. 1B, Caco-2 is colon carcinoma cells used to evaluate the permeability and efflux of drug in GI track.

CYP3A4 = assay: in vitro microsomal metabolism of taxane by human liver microsomes; type: in vitro ADME; details: for metabolism of docetaxel (DTX) by human liver microsomes: PPL added in reaction mixture with DTX
Experimental: In FIG. 1A, in vitro microsomal metabolism studies of DTX by human liver microsomes were carried out in combination with PPL and compared with a known standard CYP3A4 inhibitor, Cyclosporin A (CYA).

[1] = in vivo oral pharmacokinetic in SD rats; details: coadministration with PPL vs DTX alone
[2] = cancer cell lines, with piperlongumine

## COc1cc(/C=C/C(=O)N2CCC=CC2=O)cc(OC)c1OC [PPL, piperlongumine]
MDA-MB-231 cell line; MDA-MB-231 cell line
  % bridging of migration area: significant reduction
MDA-MB-231 cell line; [2]
  anti-migration effect of docetaxel: enhanced
  anti-migration effect of paclitaxel: enhanced
Caco-2 monolayer
  permeability co-efficient of docetaxel: enhancement
CYP3A4
  metabolism of docetaxel (DTX) by human liver microsomes: significantly reduced
CYP3A4; listed as Piperlongumine
  metabolism of docetaxel (DTX) by human liver microsomes: reduction
CYP3A4; human liver microsomes, PPL added in reaction mixture
  half-life of DTX: doubled
CYP3A4; human liver microsomes, compared with Cyclosporin A (CYA)
  CYP3A4 inhibition: comparable to inhibitor CYA
CYP3A4; with piperlongumine
  metabolism of paclitaxel by human microsomal enzyme: reduction
[1]
  oral bioavailability of docetaxel (DTX): significant enhancement
[1]; listed as Piperlongumine
  oral bioavailability of docetaxel (DTX): significantly enhanced

From patent publication US20170087120A1, “COMPOSITION FOR IMPROVING BIOAVAILBILITY AND EFFICACY OF TAXANE” (Florida A&M University, priority 2015, published 2017)
